Data as given in patent US20020120098A1, “Enhanced stimulation of erythropoiesis” (priority 1996, published 2002).

Tests used:
anemic rats = experiment: Stimulation of erythropoiesis in iron-deficient anemic rats; format: in vivo, Sprague Dawley rats
Protocol: HEMOLINK™ was evaluated for the stimulation of erythropoiesis in anemic rats. Male Sprague Dawley rats were made anemic on an iron deficient diet over a 4 week period. Six of the anemic rats received two infusions via tail vein injection one week apart (dose I and dose II) of 10% of total blood volume of 9.8 g/dL HEMOLINK™. Nine anemic rats received an equivalent amount of parenteral iron (INFJFER™, Sabex) per kg body weight for comparison. Both solutions contained 342.9 mg/L iron. The iron-deficient anemia of the HEMOLINK™ group was characterized by a pretreatment serum iron level of […] (n=1), a reticulocyte count of 0.39±0.08×10^12/L, a red blood cell count of 1.85±0.35×10^12/L, a 6.5±1.26% hematocrit and a total blood hemoglobin of 30.5±4.38 g/L.
Statistical comparisons in FIG. 14 are based on one way analyses of variance, followed by Bonefoni comparison post-hoc tests. The effect of HEMOLINK™ infusion on reticulocyte count, red blood cell count, total hemoglobin and hematocrit in anemic male rats was compared to iron infusion (INFUFER™; an iron-containing pharmaceutical composition) and to pretreatment levels. Significant differences are indicated by *p<0.05 compared with INFUFER™ and **p<0.01 compared with pretreatment anemic rats.

[1] = Half-life and blood level of Epo versus HEMOLINK after single i.v. administration; format: in vivo; conditions: for HEMOLINK level: single i.v. 4 ml/kg
Source text: Another strategy for the co-administration of Epo and hemoglobin is to reduce the number of Epo administrations required during therapy. Several Epo therapies follow the regimen of three weekly injections, either intravenously or subcutaneously. Multiple low dose or single high dose injections of Epo are required due to its relatively short half-life in vivo. […] HEMOLINK™ has a longer half-life. […] Longer half-life of the cross-linked hemoglobin can therefore compensate for Epo which may decline at a much faster rate. Thus, hemoglobin co-administered with Epo could prolong the effectiveness of Epo and therefore this combination therapy can be used to reduce the required frequency of Epo administrations.

[2] = Safety in animal experiments and Phase I clinical trial; format: in vivo; conditions: series of animal experiments and Phase I clinical trial in humans
Source text: A preferred embodiment of the present invention is the therapeutic application of hemoglobin to the treatment of anemia. HEMOLINK™ is a hemoglobin based oxygen carrier intended for use as a red blood cell substitute at doses that may exceed. 100 g. […] The present invention specifically proposes the repetitive administration of HEMOLINK™ in small doses to patients with anemia of any type. The anemias most amenable to hemoglobin therapy include: (1) anemias due to insufficient Epo production, including chronic renal failure, malaria, AIDS, rheumatoid arthritis, anemia of cancer, sickle cell anemia, prematurity and late anemia associated with Rhesus hemolytic disease of the newborn; (2) anemias due to inadequate iron incorporation, including iron-deficient anemias and anemias associated with chronic disease (e.g. infection, inflammation, trauma, or neoplastic diseases); and (3) anemias due to bone marrow failure that may be idiopathic or drug-induced.

cord blood LDMNC = experiment: Erythroid differentiation of cord blood LDMNC in liquid culture; format: cell-based, human; conditions: 20 days
Protocol: The ability of purified adult hemoglobin to stimulate erythroid progenitor differentiation has also been studied using a liquid culture system containing Epo. In this liquid culture system hemin is known to accelerate erythroid differentiation of progenitors obtained from normal adult peripheral blood, and to selectively increase fetal hemoglobin production in these cells. Primary low density mononuclear cells (LDMNC) isolated from cord blood were tested in this culture system. […] The addition of HAo (7.8-15.6 μM) to the cultures results in a further increase in glycophorin A/CD71 co-expression (80% vs. 53% in the Epo only control) and benzidine staining (82% vs. 43% in the Epo only control) after 20 days in culture.
The effect of HAo on erythroid differentiation was tested on cord blood LDMNC. […] 1.0 mg/ml HAo (15.6 μM) was added to Epo-stimulated cultures and the cultured cells were analyzed by flow cytometry (Epics Elite, Coulter) after 20 days for the co-expression of the red cell-specific marker, glycophorin A, and the transferrin receptor, CD71. […] Cultured cells were stained with anti-CD71 (abscissa) and anti-glycophorin A (ordinate) antibodies and the number of single- or double-stained cells (z-axis) analyzed. […] The percentage of glycophorin A^+/CD71^+ cells was determined from analysis of at least 6,500 cells per sample.

[3] = anemic male rats, two i.v. infusions one week apart

| Substance | erythropoietic response of anemic female rats (anemic rats; anemic female rats) | serum iron level at study termination (anemic rats; anemic female rats, two doses) [mg/dL] | increase in hematocrit (anemic rats; [3]) | increase in number of red blood cells (anemic rats; [3]) | increase in number of reticulocytes (anemic rats; [3]) | increase in total hemoglobin concentration (anemic rats; [3]) | serum iron level at study termination (anemic rats; male rats, two infusions) [mg/dL] | HEMOLINK level ([1]; 0 hours post administration) [mg/mL] | half-life of the 64 kD fraction ([1]; 0.4 g HEMOLINK/kg body weight) [h] | half-life of the >64 kD fraction ([1]; 0.4 g HEMOLINK/kg body weight) [h] | HEMOLINK level ([1]; 21 hours post administration) [mg/mL] | HEMOLINK level ([1]; 42 hours post administration) [mg/mL] | HEMOLINK level ([1]; 63 hours post administration) [mg/mL] | HEMOLINK level ([1]; 84 hours post administration) [mg/mL] | safety [2] | percentage of cells co-expressing glycophorin A and CD71 (cord blood LDMNC; HAo 1.0 mg/ml (15.6 μM; b99: 7.8-15.6 μM), Epo-stimulated, untreated 53%) [%] | benzidine staining (cord blood LDMNC; HAo 7.8-15.6 μM, 2 U/ml Epo, Epo only control 43%) [%] |
| --- | --- | --- | --- | --- | --- | --- | --- | --- | --- | --- | --- | --- | --- | --- | --- | --- | --- |
| HEMOLINK™: chemically crosslinked hemoglobin prepared by treating human hemoglobin with a polyaldehyde (O-raffinose) | not significantly different from INFUFER™ | 27.70 ± 9.88 | significant increase | significant increase | significant increase | significant increase | 10.0 ± 1.95 | 4.7 | ~7 | ~21 | 1.75 | 0.81 | 0.39 | 0.19 | demonstrated to be safe |  |  |
| HAo: adult human hemoglobin obtained from red blood cells and purified by displacement chromatography; uncross linked product |  |  |  |  |  |  |  |  |  |  |  |  |  |  |  | 80 | 82 |
